# PMC6783924, “Alkaloid Lindoldhamine Inhibits Acid-Sensing Ion Channel 1a and Reveals Anti-Inflammatory Properties” (Toxins, 2019)
# Target: T1, acid-sensing ion channel isoform 1a (ASIC1a) (Rattus norvegicus, UniProt P55926)
# T1 construct: gene Asic1
# T1 sequence (P55926 1-526): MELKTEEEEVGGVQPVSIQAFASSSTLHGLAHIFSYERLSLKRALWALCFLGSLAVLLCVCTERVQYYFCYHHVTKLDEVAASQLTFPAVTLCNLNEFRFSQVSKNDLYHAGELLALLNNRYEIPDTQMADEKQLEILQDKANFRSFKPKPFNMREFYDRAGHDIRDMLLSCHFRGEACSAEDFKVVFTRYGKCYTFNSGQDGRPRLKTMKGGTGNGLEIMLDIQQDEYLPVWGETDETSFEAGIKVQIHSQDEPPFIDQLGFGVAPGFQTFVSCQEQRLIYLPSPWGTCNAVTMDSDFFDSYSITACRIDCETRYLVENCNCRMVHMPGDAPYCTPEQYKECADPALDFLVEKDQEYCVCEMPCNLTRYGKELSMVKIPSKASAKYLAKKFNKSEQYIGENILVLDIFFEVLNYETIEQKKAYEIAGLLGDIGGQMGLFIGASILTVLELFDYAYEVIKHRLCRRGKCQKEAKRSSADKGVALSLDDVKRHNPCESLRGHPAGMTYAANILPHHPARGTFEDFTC
# Assay: two-electrode voltage clamp, Xenopus laevis oocytes expressing rat ASIC1a, pH […] stimulus from pH […]
# Type: cell-based
# Conditions: read-out: pH 6.85
compound,measurement,value
"COc1cc2c(cc1O)C(Cc1ccc(O)c(Oc3ccc(C[C@@H]4NCCc5cc(OC)c(O)cc54)cc3)c1)NCC2 (stereo partly shown) [LIN, lindoldhamine]",IC50,9 ± 0.3 µM
